Legend:
Assay type in all cases: physicochemical
[1] = Quantum yield determination (quinine sulphate standard); settings: for quantum yield Φ: with reference to quinine sulphate, 4 micromolar oxine derivative, 50 mM MgCl2, 20 mM HEPES (pH 7.4)
Protocol: (§1) This example describes the synthesis and screening of Oxn derivatives. A selection of substituted hydroxyquinoline derivatives related to a sulfonamide derivative (FIG. 1, complex 1), but bearing different acceptor groups at position 5 (FIG. 1, complexes 2-7) was prepared using previously described methods. These analogs were screened for fluorescence in the presence of excess Mg^2+ and under buffered aqueous conditions. FIG. 1 lists fluorescence data for compounds 1-7. Spectra were acquired in 150 mM NaCl, 50 mM HEPES (pH 7.4), 25° C. with 10 μM 1-7 and 10 mM MgCl2. Excitation of all species is provided at λmax […].
(§2) The fluorophores were then qualitatively compared in a 96-well plate (transilluminator; λex=365 nm) to identify promising compounds (FIG. 3) and were further subjected to quantitative analysis in a fluorescence plate reader (FIG. 8). In FIG. 8, the quantum yields of selected fluorophores were calculated with reference to quinine sulphate (in […] H2SO4) as a standard (vide infra). Compound 10u has ε355=7905 cm^−1M^−1 (vide infra). The excitation and emission wavelengths of the triazole products (10b-v, λex=360-375 nm, λem=510-530 nm) were improved compared to those for Sox (1, λex=360 nm, λem=485 nm, Φ=0.342, ε355=8,247 cm^−1M^−1). Based on the preliminary screening, selected targets were then synthesized in larger quantities and the quantum yields of the corresponding hydroxyquinoline derivatives were determined. Compared to 10a (Φ=0.033) a 3.5-fold improvement in quantum yield was obtained in the case of the bromide 10u (λex=375 nm, λem=525 nm, Φ=0.111, ε355=7,905 cm^−1M^−1). In view of the fluorescent properties of this derivative, it was chosen for use as a chelation-sensitive fluorophore to prepare probes for mitogen-activated protein kinase-activated protein kinase-2 (MK2), and sarcoma kinase (Src), used as models of Ser/Thr and Tyr kinases, respectively. For the purposes of comparison, the analogous fluorescent peptides containing the original Sox chromophore were also prepared as previously described.
c. Quantum yield determination. The quantum yield (Φ) was determined in 20 mM HEPES (pH 7.4). Quinine sulphate dihydrate (QS, Fluka, puriss. for fluorescence) in 0.1 M H2SO4 was used as a standard (Φ=0.55). A 4 micromolar solution of the corresponding oxine derivative with 50 mM MgCl2 was compared to a 4 micromolar solution of quinine sulfate to assure that the absorbance (A360) is less than 0.05 at identical excitation wavelengths. The following equation was used to calculate the quantum yield: Φ=IAQSΦQS/AIQS where A=A360 and I=integrated fluorescence intensity (λex=360 nm). The calculated Φ assumes that the refractive index of 0.1 M H2SO4 is identical to that of 20 mM HEPES (pH 7.4). […]

[2] = Fluorescence analysis of 8-hydroxyquinoline derivatives in the presence of excess Mg2+ under buffered aqueous conditions; settings: 10 μM compound; for λem / λex: 10 mM MgCl2, 150 mM NaCl, 50 mM HEPES (pH 7.4), 25° C.
Protocol: as §1
Azide 8 (FIG. 2) was prepared using previously reported methods. […] In the presence of catalytic Cu(I) and ascorbic acid, 8 reacted readily at room temperature with 1-ethynylcyclohexene (9a) in DMF/4-methylpiperidine (8:2) to afford the cycloaddition product 10a in essentially quantitative yield. […] The fluorescence properties of the triazole-substituted quinolines were investigated for the products from the 1,3-dipolar cycloaddition reaction of 8 with 21 additional alkynes (9b-v) (FIG. 2).
as §2
Fluorescence Experiments. • a. Fluorescence analysis of 8-hydroxyquinoline click products. A 96-well microtier plate was used in the experiments for preliminary examination of fluorescence properties. The overall volume in each well was 200 microliters. Individual reactions contained the crude product from the click chemistry reaction (10 micromolar dissolved in DMSO), MgCl2 (10 mM), NaCl (150 mM) and HEPES (50 mM) at 25° C. (pH 7.4). The fluorescence spectra were recorded with fixed excitation at 370 nm and emission at 525 nm. Based on the preliminary screening, selected products were then synthesized in larger quantities and the quantum yields of the corresponding hydroxyquinoline derivatives were determined.

[3] = Extinction coefficient determination
Protocol: 1. Stock solutions of the peptides were prepared in doubly deionized water and concentrations were determined by UV-Vis (based on the determined extinction coefficient of the fluorophore moiety, either 1 (Sox), ε355=8247 M^−1 cm^−1 or 10u (Clk), ε360=7905 M^−1 cm^−1 in 0.1 M NaOH with 1 mM Na2EDTA). An average of the values from three separate solutions, each prepared using a different volume of the stock solution, was read on UV-Vis spectrophotometer. Purified peptide stock solutions could be stored at 4° C. for at least 6 months or −20° C. for longer periods.
b. Extinction coefficient determination. Extinction coefficients of 1 and 10u were measured in 50 mM HEPES (pH 7.0), 150 mM NaCl. The εmax values were determined by plotting absorbance at 360 nm versus concentration for four chromophore solutions with concentrations between 20 and 60 micromolar and including 1 mM MgCl2.

[4] = Observation of oxidation of the chromophore

Row | improvement in quantum yield compared to 10a ([1]; compared to 10a (Φ=0.033)) [fold] | quantum yield Φ [1] | λem [2] [nm] | λex [2] [nm] | extinction coefficient ε355 ([3]; Example 1, 50 mM HEPES (pH 7.0), 150 mM NaCl, 1 mM MgCl2) | extinction coefficient ε360 ([3]; in 0.1 M NaOH with 1 mM Na2EDTA) [M⁻¹ cm⁻¹] | quantum yield compared with 1 (in words) ([1]; 10 μM compound, 10 mM MgCl2, pH 7.4) | excitation and emission wavelengths compared with 1 (in words) ([2]; 10 mM MgCl2, pH 7.4) | stability of the aldehyde group (in words) [4] | SMILES
1 | 3.5 | 0.111 | 525 | 375 | 7,905 cm^−1M^−1 | 7905 |  |  |  | Oc1ccc(-n2cc(-c3ccc(Br)cc3)nn2)c2cccnc12 [Compound 10u, 8-Hydroxy-5-(4-(4-bromophenyl)-1H-1,2,3-triazol-1-yl)quinoline]
2 |  | 0.033 | 522 | 371 |  |  |  |  |  | Oc1ccc(-n2cc(C3=CCCCC3)nn2)c2cccnc12 [Compound 10a, 8-Hydroxy-5-(4-cyclohexenyl-1H-1,2,3-triazol-1-yl)quinoline]
3 |  |  |  |  |  |  | improved quantum yield | shorter λem | readily oxidized | Cc1ccc2c(C=O)ccc(O)c2n1 [Compound 2, 5-Carbaldehyde-8-Hydroxy-2-methylquinoline, reference compound]

— patent US8409820B2, “Kinase sensors” (Massachusetts Institute of Technology, priority 2009, dated 2013)
